Source: US20070167492A1, “Molluscicidal agents” (priority 2003, published 2007)

Tests used:
[1] = system: Deroceras reticulatum (grey field slug); experiment: Example 2: pot re-test, treated winter wheat seed with 5 adult slugs per pot, 7 days; assay type: in vivo; details: for number of damaged seeds relative to the untreated seed: two days after the start; for number of fecal pellets per pot relative to the untreated control / plants present relative to the untreated seed: after 2, 3 and 7 days
Method in brief: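 Pots sown with 40 treated winter wheat seeds on quartz sand over potting soil, each given 5 adult grey field slugs, kept at 18-19° C, ~95% RH, ~18 h light, no overhead irrigation; 4 replicates. Damaged seeds, intact plants, dead slugs and fecal pellets counted at 2, 3, 7 days; F-tests and Student tests.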

[2] = Example 1: pot test, treated winter wheat seed with 5 adult slugs per pot, 14 days; assay type: in vivo, Deroceras reticulatum; details: Example 1; winter wheat seed treatment
Method in brief: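 Fludioxonil-disinfected winter wheat seed (Kampa, 40 per pot) sown on quartz sand over potting soil with 5 adult slugs per pot; ±15° C., ±90% RH, 12 h light/12 h dark, 4 replicates. Damaged seeds, plants, dead slugs and fecal pellets counted up to day 14; F-tests and Student-tests.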

[3] = Example 2, 2 ml formulated per kg seed, 2 days after sowing
[4] = Example 2, 2 ml formulated per kg seed, 3 days after sowing
[5] = Example 2, 2 ml formulated per kg seed, 7 days after sowing
[6] = Example 2, 4 ml formulated per kg seed, 2 days after sowing
[7] = Example 2, 4 ml formulated per kg seed, 3 days after sowing
[8] = Example 2, 4 ml formulated per kg seed, 7 days after sowing
[9] = Example 2, 10 ml formulated per kg seed, 2 days after sowing
[10] = Example 2, 10 ml formulated per kg seed, 3 days after sowing
[11] = Example 2, 10 ml formulated per kg seed, 7 days after sowing
[12] = Example 2, 8 ml formulated per kg seed, 2 days after sowing
[13] = Example 2, 8 ml formulated per kg seed, 3 days after sowing
[14] = Example 2, 8 ml formulated per kg seed, 7 days after sowing
[15] = Example 2, 12 ml formulated per kg seed, 2 days after sowing
[16] = Example 2, 12 ml formulated per kg seed, 3 days after sowing
[17] = Example 2, 12 ml formulated per kg seed, 7 days after sowing
[18] = Example 2, 3.8 ml formulated per kg seed, 2 days after sowing
[19] = Example 2, 3.8 ml formulated per kg seed, 3 days after sowing
[20] = Example 2, 3.8 ml formulated per kg seed, 7 days after sowing

O=CC=Cc1ccccc1 [cinnamaldehyde]
fecal pellets in comparison to the control ([1]; Example 2): equal number of fecal pellets | number of plants present relative to untreated ([1]; Example 2): no significantly different results | phytotoxic effect on the seeds ([1]; Example 2): phytotoxic effect on the seeds | reduction of damaged seeds relative to the untreated control ([1]; Example 2): more than 50% | result of seed treatment against slugs (conclusion) ([1]; Example 2): does not result in the desired effect | percentage of damaged seeds after 7 days ([1]; Example 2, 2 ml formulated per kg seed): 63% | Mean number of damaged seeds per pot [1, 3]: 8.8 | Mean number of dead slugs per pot [1, 3]: 0 | Mean number of damaged seeds per pot [1, 4]: 15.0 | Mean number of dead slugs per pot [1, 4]: 0 | Mean number of damaged seeds per pot [1, 5]: 25.0 | Mean number of dead slugs per pot [1, 5]: 0.5 | percentage of damaged seeds after 7 days ([1]; Example 2, 4 ml formulated per kg seed): 36% | Mean number of damaged seeds per pot [1, 6]: 5.0 | Mean number of dead slugs per pot [1, 6]: 0 | Mean number of damaged seeds per pot [1, 7]: 8.8 | Mean number of dead slugs per pot [1, 7]: 0 | Mean number of damaged seeds per pot [1, 8]: 14.3 | Mean number of dead slugs per pot [1, 8]: 0.8 | percentage of damaged seeds after 7 days ([1]; Example 2, 10 ml formulated per kg seed): 39% | Mean number of damaged seeds per pot [1, 9]: 6.0 | Mean number of dead slugs per pot [1, 9]: 0 | Mean number of damaged seeds per pot [1, 10]: 10.5 | Mean number of dead slugs per pot [1, 10]: 0 | Mean number of damaged seeds per pot [1, 11]: 15.8 | Mean number of dead slugs per pot [1, 11]: 0.5 | number of damaged seeds relative to the untreated seed ([1]; Example 2): significant reduction in the number of damaged seeds | Mean number of fecal pellets per pot ([1]; dosage 2 ml, 2 days): 45 | Mean number of plants present per pot ([1]; dosage 2 ml, 2 days): 0 | Mean number of fecal pellets per pot ([1]; dosage 2 ml, 3 days): 91 | Mean number of plants present per pot ([1]; dosage 2 ml, 3 days): 0 | Mean number of fecal pellets per pot ([1]; dosage 2 ml, 7 days): 124 | Mean number of plants present per pot ([1]; dosage 2 ml, 7 days): 0 | number of utilizable plants after 7 days ([1]; dosage 2 ml, 7 days): 0 | Mean number of fecal pellets per pot ([1]; dosage 4 ml, 2 days): 28 | Mean number of plants present per pot ([1]; dosage 4 ml, 2 days): 0 | Mean number of fecal pellets per pot ([1]; dosage 4 ml, 3 days): 58 | Mean number of plants present per pot ([1]; dosage 4 ml, 3 days): 0 | Mean number of fecal pellets per pot ([1]; dosage 4 ml, 7 days): 82 | Mean number of plants present per pot ([1]; dosage 4 ml, 7 days): 0 | number of utilizable plants after 7 days ([1]; dosage 4 ml, 7 days): 0 | Mean number of fecal pellets per pot ([1]; dosage 10 ml, 2 days): 42 | Mean number of plants present per pot ([1]; dosage 10 ml, 2 days): 0 | Mean number of fecal pellets per pot ([1]; dosage 10 ml, 3 days): 77 | Mean number of plants present per pot ([1]; dosage 10 ml, 3 days): 0 | Mean number of fecal pellets per pot ([1]; dosage 10 ml, 7 days): 91 | Mean number of plants present per pot ([1]; dosage 10 ml, 7 days): 0 | number of utilizable plants after 7 days ([1]; dosage 10 ml, 7 days): 0 | phytotoxicity [2]: phytotoxic

O=[N+]([O-])NC1=NCCN1Cc1ccc(Cl)nc1 [imidacloprid]
result of seed treatment against slugs (conclusion) ([1]; Example 2): acceptable result | percentage of damaged seeds after 7 days ([1]; Example 2, 8 ml formulated per kg seed): 23% | Mean number of damaged seeds per pot [1, 12]: 4.8 | Mean number of dead slugs per pot [1, 12]: 0 | Mean number of damaged seeds per pot [1, 13]: 9.0 | Mean number of dead slugs per pot [1, 13]: 0 | Mean number of damaged seeds per pot [1, 14]: 9.0 | Mean number of dead slugs per pot [1, 14]: 1.0 | percentage of damaged seeds after 7 days ([1]; Example 2, 12 ml formulated per kg seed): 12% | Mean number of damaged seeds per pot [1, 15]: 1.8 | Mean number of dead slugs per pot [1, 15]: 0 | Mean number of damaged seeds per pot [1, 16]: 3.8 | Mean number of dead slugs per pot [1, 16]: 0 | Mean number of damaged seeds per pot [1, 17]: 4.8 | Mean number of dead slugs per pot [1, 17]: 0.8 | number of fecal pellets per pot relative to the untreated control ([1]; Example 2): significant reduction in the number of fecal pellets | plants present relative to the untreated seed ([1]; Example 2): significantly more plants present | number of damaged seeds relative to the untreated seed ([1]; Example 2): significant reduction in the number of damaged seeds | Mean number of fecal pellets per pot ([1]; dosage 8 ml, 2 days): 6 | Mean number of plants present per pot ([1]; dosage 8 ml, 2 days): 7.8 | Mean number of fecal pellets per pot ([1]; dosage 8 ml, 3 days): 17 | Mean number of plants present per pot ([1]; dosage 8 ml, 3 days): 12.3 | Mean number of fecal pellets per pot ([1]; dosage 8 ml, 7 days): 29 | Mean number of plants present per pot ([1]; dosage 8 ml, 7 days): 18.3 | number of utilizable plants after 7 days ([1]; dosage 8 ml, 7 days): 13.5 | Mean number of fecal pellets per pot ([1]; dosage 12 ml, 2 days): 3 | Mean number of plants present per pot ([1]; dosage 12 ml, 2 days): 16.0 | Mean number of fecal pellets per pot ([1]; dosage 12 ml, 3 days): 17 | Mean number of plants present per pot ([1]; dosage 12 ml, 3 days): 24.5 | Mean number of fecal pellets per pot ([1]; dosage 12 ml, 7 days): 28 | Mean number of plants present per pot ([1]; dosage 12 ml, 7 days): 28.3 | number of utilizable plants after 7 days ([1]; dosage 12 ml, 7 days): 22.8

CC1OC(C)OC(C)OC(C)O1 (stereo not shown) [metaldehyde]
dead slugs observed during the course of the experiment ([1]; Example 2): More dead slugs | result of seed treatment against slugs (conclusion) ([1]; Example 2): good action against slugs | percentage of damaged seeds after 7 days ([1]; Example 2, 3.8 ml formulated per kg seed): 1% | Mean number of damaged seeds per pot [1, 18]: 0.5 | Mean number of dead slugs per pot [1, 18]: 0.5 | Mean number of damaged seeds per pot [1, 19]: 0.3 | Mean number of dead slugs per pot [1, 19]: 0.8 | Mean number of damaged seeds per pot [1, 20]: 0.3 | Mean number of dead slugs per pot [1, 20]: 3.0 | number of fecal pellets per pot relative to the untreated control ([1]; Example 2): significant reduction in the number of fecal pellets | plants present relative to the untreated seed ([1]; Example 2): significantly more plants present | number of damaged seeds relative to the untreated seed ([1]; Example 2): significant reduction in the number of damaged seeds | Mean number of fecal pellets per pot ([1]; dosage 3.8 ml, 2 days): 0 | Mean number of plants present per pot ([1]; dosage 3.8 ml, 2 days): 20.8 | Mean number of fecal pellets per pot ([1]; dosage 3.8 ml, 3 days): 0 | Mean number of plants present per pot ([1]; dosage 3.8 ml, 3 days): 32.5 | Mean number of fecal pellets per pot ([1]; dosage 3.8 ml, 7 days): 5 | Mean number of plants present per pot ([1]; dosage 3.8 ml, 7 days): 35.8 | number of utilizable plants after 7 days ([1]; dosage 3.8 ml, 7 days): 34.3
